According to patent publication US20190374627A1, “TARGET PEPTIDES FOR CANCER THERAPY AND DIAGNOSTICS” (priority 2016, published 2019):
Entries after “also recorded” stand apart in the source; their conditions may differ. Square brackets hold non-standard residues; d marks the D form. Ends that are not written are not given here. pS = N[C@@H](COP(=O)(O)O)C(=O)O

Experiments:
[1] = tested on: expanded TIL / IHL cultures; assay: ICS for MHC-I-pP reactivity of liver-derived lymphocyte cultures after unspecific rapid expansion protocol (REP); assay type: cell-based, human
[2] = tested on: CD8^+ T cells (PBMCs); assay: Ex vivo ICS of PBMCs after stimulation for 4 hours with the peptide; assay type: cell-based, human; details: PBMCs of a patient with hereditary hemochromatosis, 4 hours stimulation
[3] = tested on: CD8^+ T cells (PBMCs); assay: Intracellular cytokine staining (ICS) of PBMCs after 7 days of stimulation with MHC-I-pP (healthy donors, HH patients); assay type: cell-based, human; details: for Reactive CD8^+ T cell population, HH2: HH patient HH2; for Reactive CD8^+ T cell population, HH3: HH patient HH3; for Reactive CD8^+ T cell population, HH6: HH patient HH6; for Reactive CD8^+ T cell population, HH8: HH patient HH8; for Reactive CD8^+ T cell population, HH11: HH patient HH11; for Reactive CD8^+ T cell population, HD1: Healthy donor HD1; for Reactive CD8^+ T cell population, HD4: Healthy donor HD4; for Reactive CD8^+ T cell population, HD5: Healthy donor HD5
In short: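 PBMCs or liver lymphocytes from HLA-A*0201-positive healthy donors and hereditary hemochromatosis patients were stimulated for 7 days with HLA-A*0201-restricted phosphopeptides and no added cytokines. After exclusion of doublets and dead cells with a fixable viability dye, CD3^+CD8^+ cells were analysed by intracellular staining for IFN-γ and TNF-α, plus CD107a where needed.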

[4] = tested on: unexpanded lymphocyte cultures (CD8^+ T cells); assay: ICS for MHC-I-pP reactivity of lymphocyte cultures without expansion (Table 23, No Expansion)
[5] = tested on: expanded lymphocyte cultures from deceased donor livers, cirrhotic livers and HCC; assay: ICS for MHC-I-pP reactivity of liver-derived lymphocyte cultures after phosphopeptide-specific expansion; assay type: cell-based, human; details: for ppCTL response, Deceased Donor Liver Do 2 / ppCTL response, Deceased Donor Liver Do 3 / ppCTL response, Deceased Donor Liver Do 4 / ppCTL response, Deceased Donor Liver Do 6 / ppCTL response, End-stage Liver Cirrhosis IHL 11 / ppCTL response, End-stage Liver Cirrhosis IHL 12 / ppCTL response, End-stage Liver Cirrhosis IHL 13 / ppCTL response, End-stage Liver Cirrhosis IHL 15 / ppCTL response, HCC Distal HCC 1 / ppCTL response, HCC Tumor HCC 1 / ppCTL response, HCC Distal HCC 4 / ppCTL response, HCC Distal HCC 9 / ppCTL response, HCC Tumor HCC 9 / ppCTL response, HCC Distal HCC 12: pP-specifically expanded culture; for ppCTL response, HCC Distal HCC 1: HCC 1 Distal; for ppCTL response, HCC Tumor HCC 1: HCC 1 Tumor; for ppCTL response, HCC Distal HCC 4: HCC 4 Distal; for ppCTL response, HCC Distal HCC 9: HCC 9 Distal; for ppCTL response, HCC Tumor HCC 9: HCC 9 Tumor; for ppCTL response, HCC Distal HCC 12: HCC 12 Distal

RVAsPTSGV: IRS2 phosphopeptide, HLA-A*0201 (RVA[pS]PTSGV; listed as Homo sapiens)
Reactive CD8^+ T cells, Non-specific Expansion, Do2 [1]: 0 (<0.25% reactive CD8^-+ T cells)
Reactive CD8^+ T cells, Non-specific Expansion, Do4 [1]: 0 (<0.25% reactive CD8^-+ T cells)
Reactive CD8^+ T cells, Non-specific Expansion, HH6 [1]: 0 (<0.25% reactive CD8^-+ T cells)
ex vivo CD8^+ T cell response [2]: evident ex vivo; also recorded: ex vivo CD8^+ T cell response
Reactive CD8^+ T cell population, HH2 [3]: 0 (<0.25% reactive CD8^-+ T cells)
Reactive CD8^+ T cell population, HH3 [3]: 0 (<0.25% reactive CD8^-+ T cells)
Reactive CD8^+ T cell population, HH6 [3]: 0 (<0.25% reactive CD8^-+ T cells)
Reactive CD8^+ T cell population, HH8 [3]: 0 (<0.25% reactive CD8^-+ T cells)
Reactive CD8^+ T cell population, HH10 ([3]; HH patient HH10): 2 (2.5-5.0% reactive CD8^-+ T cells)
Reactive CD8^+ T cell population, HH11 [3]: 0 (<0.25% reactive CD8^-+ T cells)
Reactive CD8^+ T cell population, HD1 [3]: 0 (<0.25% reactive CD8^-+ T cells)
Reactive CD8^+ T cell population, HD2 ([3]; Healthy donor HD2): 0 (<0.25% reactive CD8^-+ T cells)
Reactive CD8^+ T cell population, HD3 ([3]; Healthy donor HD3): 0 (<0.25% reactive CD8^-+ T cells)
Reactive CD8^+ T cell population, HD4 [3]: 0 (<0.25% reactive CD8^-+ T cells)
Reactive CD8^+ T cell population, HD5 [3]: 0 (<0.25% reactive CD8^-+ T cells)
Reactive CD8^+ T cells, No Expansion, Do4 ([4]; Do4): 3 (5-7.5% reactive CD8^-+ T cells)
Reactive CD8^+ T cells, No Expansion, HH6 [4]: 0 (<0.25% reactive CD8^-+ T cells)
Reactive CD8^+ T cells, pP-specific Expansion, Do2 [5]: 0 (<0.25% reactive CD8^-+ T cells)
Reactive CD8^+ T cells, pP-specific Expansion, Do4 [5]: 2 (2.5-5.0% reactive CD8^-+ T cells)
Reactive CD8^+ T cells, pP-specific Expansion, HH6 [5]: 0 (<0.25% reactive CD8^-+ T cells)
ppCTL response, Deceased Donor Liver Do 2 [5]: 0 (<0.25% reactive CD8-+ T cells)
ppCTL response, Deceased Donor Liver Do 3 [5]: 0 (<0.25% reactive CD8-+ T cells)
ppCTL response, Deceased Donor Liver Do 4 [5]: 2 (2.5-5.0% reactive CD8-+ T cells)
ppCTL response, Deceased Donor Liver Do 6 [5]: 1 (0.25-2.5% reactive CD8-+ T cells)
ppCTL response, End-stage Liver Cirrhosis IHL 11 [5]: 0 (<0.25% reactive CD8-+ T cells)
ppCTL response, End-stage Liver Cirrhosis IHL 12 [5]: 0 (<0.25% reactive CD8-+ T cells)
ppCTL response, End-stage Liver Cirrhosis IHL 13 [5]: 0 (<0.25% reactive CD8-+ T cells)
ppCTL response, End-stage Liver Cirrhosis IHL 15 [5]: 0 (<0.25% reactive CD8-+ T cells)
ppCTL response, HCC Distal HCC 1 [5]: 0 (<0.25% reactive CD8-+ T cells)
ppCTL response, HCC Tumor HCC 1 [5]: 0 (<0.25% reactive CD8-+ T cells)
ppCTL response, HCC Distal HCC 4 [5]: 0 (<0.25% reactive CD8-+ T cells)
ppCTL response, HCC Distal HCC 9 [5]: 0 (<0.25% reactive CD8-+ T cells)
ppCTL response, HCC Tumor HCC 9 [5]: 0 (<0.25% reactive CD8-+ T cells)
ppCTL response, HCC Distal HCC 12 [5]: 0 (<0.25% reactive CD8-+ T cells)

ALDsGASLLHL: RIPK4 phosphopeptide, HLA-A*0201 (ALD[pS]GASLLHL; listed as Homo sapiens)
Reactive CD8^+ T cells, Non-specific Expansion, Do2 [1]: 0 (<0.25% reactive CD8^-+ T cells)
Reactive CD8^+ T cells, Non-specific Expansion, Do4 [1]: 0 (<0.25% reactive CD8^-+ T cells)
Reactive CD8^+ T cells, Non-specific Expansion, HH6 [1]: 0 (<0.25% reactive CD8^-+ T cells)
Reactive CD8^+ T cell population, HH2 [3]: 0 (<0.25% reactive CD8^-+ T cells)
Reactive CD8^+ T cell population, HH3 [3]: 0 (<0.25% reactive CD8^-+ T cells)
Reactive CD8^+ T cell population, HH6 [3]: 0 (<0.25% reactive CD8^-+ T cells)
Reactive CD8^+ T cell population, HH8 [3]: 0 (<0.25% reactive CD8^-+ T cells)
Reactive CD8^+ T cell population, HH11 [3]: 1 (0.25-2.5% reactive CD8^-+ T cells)
Reactive CD8^+ T cell population, HD1 [3]: 0 (<0.25% reactive CD8^-+ T cells)
Reactive CD8^+ T cell population, HD4 [3]: 0 (<0.25% reactive CD8^-+ T cells)
Reactive CD8^+ T cell population, HD5 [3]: 0 (<0.25% reactive CD8^-+ T cells)
Reactive CD8^+ T cells, No Expansion, HH6 [4]: 2 (2.5-5.0% reactive CD8^-+ T cells)
Reactive CD8^+ T cells, pP-specific Expansion, Do2 [5]: 0 (<0.25% reactive CD8^-+ T cells)
Reactive CD8^+ T cells, pP-specific Expansion, Do4 [5]: 0 (<0.25% reactive CD8^-+ T cells)
Reactive CD8^+ T cells, pP-specific Expansion, HH6 [5]: 2 (2.5-5.0% reactive CD8^-+ T cells)
ppCTL response, Deceased Donor Liver Do 2 [5]: 0 (<0.25% reactive CD8-+ T cells)
ppCTL response, Deceased Donor Liver Do 3 [5]: 0 (<0.25% reactive CD8-+ T cells)
ppCTL response, Deceased Donor Liver Do 4 [5]: 0 (<0.25% reactive CD8-+ T cells)
ppCTL response, Deceased Donor Liver Do 6 [5]: 0 (<0.25% reactive CD8-+ T cells)
ppCTL response, End-stage Liver Cirrhosis IHL 11 [5]: 0 (<0.25% reactive CD8-+ T cells)
ppCTL response, End-stage Liver Cirrhosis IHL 12 [5]: 0 (<0.25% reactive CD8-+ T cells)
ppCTL response, End-stage Liver Cirrhosis IHL 13 [5]: 0 (<0.25% reactive CD8-+ T cells)
ppCTL response, End-stage Liver Cirrhosis IHL 15 [5]: 3 (5-7.5% reactive CD8-+ T cells)
ppCTL response, HCC Distal HCC 1 [5]: 0 (<0.25% reactive CD8-+ T cells)
ppCTL response, HCC Tumor HCC 1 [5]: 0 (<0.25% reactive CD8-+ T cells)
ppCTL response, HCC Distal HCC 4 [5]: 0 (<0.25% reactive CD8-+ T cells)
ppCTL response, HCC Distal HCC 9 [5]: 0 (<0.25% reactive CD8-+ T cells)
ppCTL response, HCC Tumor HCC 9 [5]: 0 (<0.25% reactive CD8-+ T cells)
ppCTL response, HCC Distal HCC 12 [5]: 0 (<0.25% reactive CD8-+ T cells)
